Structures can show the parent of a compound that is named as a salt.
Columns and labels:
[1] = molecular target: T1, serotonin 5-HT1A receptor (Homo sapiens, UniProt P08908); assay: Serotonin, 5HT1A (Human Recombinant) Binding Assay; settings: human recombinant in HEK-293 cells, [3H]-8-OH-DPAT
T1 construct: expressed in transfected cells; host or cells: HEK-293 cells
T1 sequence (P08908 1-422): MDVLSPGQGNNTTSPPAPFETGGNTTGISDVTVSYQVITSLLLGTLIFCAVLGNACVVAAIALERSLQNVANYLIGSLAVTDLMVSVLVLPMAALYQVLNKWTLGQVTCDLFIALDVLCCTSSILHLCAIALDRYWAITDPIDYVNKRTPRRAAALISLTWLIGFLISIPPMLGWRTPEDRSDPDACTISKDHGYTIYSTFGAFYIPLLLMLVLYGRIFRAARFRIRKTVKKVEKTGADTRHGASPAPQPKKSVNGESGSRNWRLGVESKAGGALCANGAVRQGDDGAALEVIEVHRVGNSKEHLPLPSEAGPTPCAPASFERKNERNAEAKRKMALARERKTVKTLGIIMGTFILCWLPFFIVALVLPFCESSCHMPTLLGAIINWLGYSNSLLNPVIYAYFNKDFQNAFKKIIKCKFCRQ
Method: Serotonin, 5HT1A (Human Recombinant) Binding Assay
Receptor Source Human recombinant expressed in HEK-293 cells
Radioligand: [^3H]-8-OH-DPAT (221 Ci/mmol)
Control Compound: 8-OH-DPAT
Incubation Conditions The reactions were carried out in 50 mM TRIS-HCl (pH 7.4) containing 10 mM MgSO4, 0.5 mM EDTA and 0.1% Ascorbic acid at room temperature for 1 hour. The reaction was terminated by rapid vacuum filtration onto glass fiber filters. Radioactivity trapped onto the filters was determined and compared to control values in order to ascertain any interactions of test compounds with the cloned serotonin-5HT1A binding site (Literature Reference: Hoyer, D. et al. Eur. Journal Pharmacol. 1985, 118, 13-23; Schoeffter, P. and Hoyer, D. Naunyn-Schmiedeberg's Arch. Pharmac. 1989, 340, 135-138)
(§1) The radioligand binding assays for dopamine-D2S, serotonin-5HT1A and serotonin-5HT2A were carried out at six different concentrations and the test concentrations were 0.5 nM, 1 nM, 10 nm, 100 nM, 300 nM and 1000 nM.

[2] = molecular target: T2, dopamine-D2 short (D2S) receptor (Homo sapiens, UniProt P14416); assay: Dopamine, D2s (Human Recombinant) Binding Assay; settings: human recombinant in CHO cells, [3H]Spiperone
T2 construct: expressed in transfected cells; host or cells: CHO cells
Method: Dopamine, D2s (Human Recombinant) Binding Assay
Receptor Source Human recombinant expressed in CHO cells
Radioligand: [^3H]Spiperone (20-60 Ci/mmol)
Control Compound Haloperidol
Incubation Conditions The reactions were carried out in 50 mM TRIS-HCl (pH 7.4) containing 120 mM NaCl, 5 mM KCl, 5 mM MgCl2, 1 mM EDTA for 60 minutes at 25 C. The reaction was terminated by rapid vacuum filtration onto glass fiber filters. Radioactivity trapped onto the filters was determined and compared to control values in order to ascertain any interactions of test compounds with the cloned dopamine-D2 short binding site (Literature Reference: Jarvis, K. R. et al. Journal of Receptor Research 1993, 13(1-4), 573-590; Gundlach, A. L. et al. Life Sciences 1984, 35, 1981-1988.)
as §1

[3] = molecular target: T3, serotonin 5-HT2A receptor (Homo sapiens, UniProt P28223); assay: Serotonin, 5HT2a (Human) Binding Assay; settings: human cortex, [3H]-Ketanserin
T3 construct: Receptor Source Human Cortex; from tissue; host or cells: human cortex
Method: Serotonin, 5HT2a (Human) Binding Assay
Receptor Source Human Cortex
Radioligand: [^3H]-Ketanserin (60-90 Ci/mmol)
Control Compound Ketanserin
Incubation Conditions: The reactions were carried out in 50 mM TRIS-HCl (pH 7.6) at room temperature for 90 minutes. The reaction was terminated by rapid vacuum filtration onto glass fiber filters. Radioactivity trapped onto the filters was determined and compared to control values in order to ascertain any interactions of test compounds with the serotonin-5HT2A binding site (Literature Reference: Leysen, J. E. et al. Mol. Pharmacol. 1982, 21, 301-314; Martin, G. R. and Humphrey, P. P. A. Neuropharmacol. 1994, 33(3/4), 261-273.)
as §1

T2 sequence (P14416 1-414 isoform P14416-2): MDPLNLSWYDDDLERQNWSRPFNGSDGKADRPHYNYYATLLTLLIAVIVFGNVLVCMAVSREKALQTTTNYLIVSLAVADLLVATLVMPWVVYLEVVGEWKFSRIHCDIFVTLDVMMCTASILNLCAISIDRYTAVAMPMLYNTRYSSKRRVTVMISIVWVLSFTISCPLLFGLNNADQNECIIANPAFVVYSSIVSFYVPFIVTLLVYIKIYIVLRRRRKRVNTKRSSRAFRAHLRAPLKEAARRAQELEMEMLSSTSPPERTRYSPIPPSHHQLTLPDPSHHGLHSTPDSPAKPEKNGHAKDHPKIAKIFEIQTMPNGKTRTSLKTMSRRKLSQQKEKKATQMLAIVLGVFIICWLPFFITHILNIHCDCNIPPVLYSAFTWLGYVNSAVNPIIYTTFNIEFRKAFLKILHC
T3 sequence (P28223 whole entry): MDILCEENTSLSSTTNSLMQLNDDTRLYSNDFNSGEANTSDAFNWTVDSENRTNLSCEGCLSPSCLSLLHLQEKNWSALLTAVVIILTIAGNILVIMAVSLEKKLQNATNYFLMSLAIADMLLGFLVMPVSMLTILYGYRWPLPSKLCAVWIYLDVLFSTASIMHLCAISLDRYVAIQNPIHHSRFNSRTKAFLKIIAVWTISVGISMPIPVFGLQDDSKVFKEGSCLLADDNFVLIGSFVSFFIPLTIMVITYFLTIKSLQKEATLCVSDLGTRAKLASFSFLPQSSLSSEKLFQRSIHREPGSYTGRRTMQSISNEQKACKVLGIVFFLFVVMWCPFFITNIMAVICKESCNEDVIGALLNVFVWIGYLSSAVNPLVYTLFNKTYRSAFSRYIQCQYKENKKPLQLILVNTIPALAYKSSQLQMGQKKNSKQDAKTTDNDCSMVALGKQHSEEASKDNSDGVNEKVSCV

| SMILES | IC50 [1] | Ki [1] | IC50 [2] | Ki [2] | IC50 [3] | Ki [3] |
| --- | --- | --- | --- | --- | --- | --- |
| O=c1[nH]c(=O)c2ccc(OCCCCN3CCN(c4cccc(Cl)c4Cl)CC3)cc2[nH]1 [Compound 10b, 7-(4-(4-(2,3-Dichlorophenyl)piperazin-1-yl)butoxy)quinazoline-2,4(1H, 3H)-dione hydrochloride] | 1.63 nM | 0.99 nM | 1.35 nM | 0.43 nM | 38.3 nM | 20.4 nM |
| COc1ccccc1N1CCN(CCCCOc2ccc3c(=O)[nH]c(=O)[nH]c3c2)CC1 [Compound 10a, 7-(4-(4-(2-Methoxyphenyl)piperazin-1-yl)butoxy)quinazoline-2,4(1H, 3H)-dione hydrochloride] | 1.09 nM | 0.66 nM | 2.5 nM | 0.74 nM | 268 nM | 131 nM |
| O=c1[nH]c2ccccc2c(=O)n1CCCCN1CCN(c2cccc(Cl)c2Cl)CC1 [Compound 17b, 3-(4-(4-(2,3-Dichlorophenyl)piperazin-1-yl)butyl)quinazoline-2,4(1H, 3H)-dione hydrochloride] | 0.95 nM | 0.58 nM | 6.35 nM | 1.87 nM | 82.6 nM | 40.5 nM |
